Experimental data reported in ChEMBL document CHEMBL1201862, “PubChem BioAssay data set” (2004).
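These data come from cells grown in 96-well plates and exposed to compound for 48 hours at five concentrations. Abbreviation: GI50, concentration required for 50% inhibition of growth.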 Activity calls are given as the source filed them. Cut-off read from the data, not from the text of the source: active = GI50 up to about 1.1 µM and inactive = higher.

What was measured:
Test in all cases: inhibition of tumour cell growth, NCI panel, 48 h
MDA-N = tested on: MDA-N
M14 = tested on: M14
CAKI-1 = tested on: CAKI-1
CCRF-CEM = tested on: CCRF-CEM
NCI-H23 = tested on: NCI-H23
MOLT-4 = tested on: MOLT-4
HT-29 = tested on: HT-29
SK-MEL-28 = tested on: SK-MEL-28
786-0 = tested on: 786-0
RXF 393 = tested on: RXF 393
SN12C = tested on: SN12C
T47D = tested on: T47D
A498 = tested on: A498
SR = tested on: SR
UACC-62 = tested on: UACC-62
SNB-19 = tested on: SNB-19
DU-145 = tested on: DU-145
HCC 2998 = tested on: HCC 2998
K562 = tested on: K562
PC-3 = tested on: PC-3
NCI-H226 = tested on: NCI-H226
MCF7 = tested on: MCF7
BT-549 = tested on: BT-549
SK-MEL-2 = tested on: SK-MEL-2
A549 = tested on: A549
MDA-MB-435 = tested on: MDA-MB-435
HOP-92 = tested on: HOP-92
LOX IMVI = tested on: LOX IMVI
IGROV-1 = tested on: IGROV-1
OVCAR-5 = tested on: OVCAR-5
SF-268 = tested on: SF-268
NCI/ADR-RES = tested on: NCI/ADR-RES
MDA-MB-231 = tested on: MDA-MB-231
U-251 = tested on: U-251
COLO 205 = tested on: COLO 205
HCT-15 = tested on: HCT-15
NCI-H522 = tested on: NCI-H522
SK-OV-3 = tested on: SK-OV-3
SK-MEL-5 = tested on: SK-MEL-5
SNB-75 = tested on: SNB-75
SF-295 = tested on: SF-295
UACC-257 = tested on: UACC-257
SF-539 = tested on: SF-539
RPMI-8226 = tested on: RPMI-8226
EKVX = tested on: EKVX
HCT-116 = tested on: HCT-116
NCI-H460 = tested on: NCI-H460
SW-620 = tested on: SW-620
HL-60 = tested on: HL-60
TK-10 = tested on: TK-10
KM12 = tested on: KM12
OVCAR-3 = tested on: OVCAR-3
Malme-3M = tested on: Malme-3M
OVCAR-4 = tested on: OVCAR-4
HOP-62 = tested on: HOP-62
Hs-578T = tested on: Hs-578T
OVCAR-8 = tested on: OVCAR-8
ACHN = tested on: ACHN
UO-31 = tested on: UO-31

O=C1CC(C(O)(C(F)(F)F)C(F)(F)Cl)CCC1C(O)(C(F)(F)F)C(F)(F)Cl (stereo unspecified)
GI50 (MDA-N): > 10 µM (inactive)
GI50 (M14): > 10 µM (inactive)
GI50 (CAKI-1): > 10 µM (inactive)
GI50 (CCRF-CEM): > 10 µM (inactive)
GI50 (NCI-H23): 9.55 µM (inactive)
GI50 (MOLT-4): > 10 µM (inactive)
GI50 (HT-29): 5.78 µM (inactive)
GI50 (SK-MEL-28): > 10 µM (inactive)
GI50 (786-0): > 10 µM (inactive)
GI50 (RXF 393): 3.49 µM (inactive)
GI50 (SN12C): > 10 µM (inactive)
GI50 (T47D): > 10 µM (inactive)
GI50 (A498): 6.58 µM (inactive)
GI50 (SR): > 10 µM (inactive)
GI50 (UACC-62): 7.55 µM (inactive)
GI50 (SNB-19): > 10 µM (inactive)
GI50 (DU-145): > 10 µM (inactive)
GI50 (HCC 2998): > 10 µM (inactive)
GI50 (K562): > 10 µM (inactive)
GI50 (PC-3): 2.68 µM (inactive)
GI50 (NCI-H226): > 10 µM (inactive)
GI50 (MCF7): 8.71 µM (inactive)
GI50 (BT-549): > 10 µM (inactive)
GI50 (SK-MEL-2): 3.25 µM (inactive)
GI50 (A549): > 10 µM (inactive)
GI50 (MDA-MB-435): > 10 µM (inactive)
GI50 (HOP-92): 1.26 µM (inactive)
GI50 (LOX IMVI): > 10 µM (inactive)
GI50 (IGROV-1): > 10 µM (inactive)
GI50 (OVCAR-5): > 10 µM (inactive)
GI50 (SF-268): > 10 µM (inactive)
GI50 (NCI/ADR-RES): > 10 µM (inactive)
GI50 (MDA-MB-231): > 10 µM (inactive)
GI50 (U-251): > 10 µM (inactive)
GI50 (COLO 205): 4.6 µM (inactive)
GI50 (HCT-15): > 10 µM
GI50 (NCI-H522): 8.77 µM (inactive)
GI50 (SK-OV-3): > 10 µM (inactive)
GI50 (SK-MEL-5): > 10 µM (inactive)
GI50 (SNB-75): 8.71 µM (inactive)
GI50 (SF-295): 7.5 µM (inactive)
GI50 (UACC-257): 4.18 µM (inactive)
GI50 (SF-539): 7.18 µM (inactive)
GI50 (RPMI-8226): > 10 µM (inactive)
GI50 (EKVX): > 10 µM (inactive)
GI50 (HCT-116): 7.19 µM (inactive)
GI50 (NCI-H460): > 10 µM (inactive)
GI50 (SW-620): > 10 µM (inactive)
GI50 (HL-60): > 10 µM (inactive)
GI50 (TK-10): > 10 µM (inactive)
GI50 (KM12): > 10 µM (inactive)
GI50 (OVCAR-3): > 10 µM (inactive)
GI50 (Malme-3M): > 10 µM (inactive)
GI50 (OVCAR-4): > 10 µM (inactive)
GI50 (HOP-62): > 10 µM (inactive)
GI50 (Hs-578T): > 10 µM (inactive)
GI50 (OVCAR-8): > 10 µM (inactive)
GI50 (ACHN): > 10 µM (inactive)

N#C[BH2-][n+]1cn(C2CC(OP(=O)(O)OCC3OC(n4cnc5c(N)ncnc54)CC3O)C(CO)O2)c2nc(N)[nH]c(=O)c21 (stereo unspecified)
GI50 (MDA-N): > 100 µM (inactive)
GI50 (CAKI-1): > 100 µM (inactive)
GI50 (CCRF-CEM): > 100 µM (inactive)
GI50 (NCI-H23): > 100 µM (inactive)
GI50 (MOLT-4): > 100 µM (inactive)
GI50 (HT-29): > 100 µM (inactive)
GI50 (SK-MEL-28): > 100 µM (inactive)
GI50 (786-0): > 100 µM (inactive)
GI50 (RXF 393): > 100 µM (inactive)
GI50 (SN12C): > 100 µM (inactive)
GI50 (T47D): > 100 µM (inactive)
GI50 (A498): > 100 µM (inactive)
GI50 (SR): > 100 µM (inactive)
GI50 (UACC-62): > 100 µM (inactive)
GI50 (SNB-19): > 100 µM (inactive)
GI50 (UO-31): > 100 µM (inactive)
GI50 (DU-145): > 100 µM (inactive)
GI50 (HCC 2998): > 100 µM (inactive)
GI50 (K562): > 100 µM (inactive)
GI50 (PC-3): > 100 µM (inactive)
GI50 (NCI-H226): > 100 µM (inactive)
GI50 (MCF7): > 100 µM (inactive)
GI50 (BT-549): > 100 µM (inactive)
GI50 (SK-MEL-2): > 100 µM (inactive)
GI50 (A549): > 100 µM (inactive)
GI50 (MDA-MB-435): > 100 µM (inactive)
GI50 (HOP-92): > 100 µM (inactive)
GI50 (LOX IMVI): > 100 µM (inactive)
GI50 (IGROV-1): > 100 µM (inactive)
GI50 (OVCAR-5): > 100 µM (inactive)
GI50 (SF-268): > 100 µM (inactive)
GI50 (NCI/ADR-RES): > 100 µM (inactive)
GI50 (MDA-MB-231): > 100 µM (inactive)
GI50 (U-251): > 100 µM (inactive)
GI50 (COLO 205): > 100 µM (inactive)
GI50 (HCT-15): > 100 µM
GI50 (NCI-H522): > 100 µM (inactive)
GI50 (SK-OV-3): > 100 µM (inactive)
GI50 (SK-MEL-5): > 100 µM (inactive)
GI50 (SNB-75): > 100 µM (inactive)
GI50 (SF-295): > 100 µM (inactive)
GI50 (UACC-257): > 100 µM (inactive)
GI50 (SF-539): > 100 µM (inactive)
GI50 (RPMI-8226): > 100 µM (inactive)
GI50 (EKVX): > 100 µM (inactive)
GI50 (HCT-116): > 100 µM (inactive)
GI50 (NCI-H460): > 100 µM (inactive)
GI50 (SW-620): > 100 µM (inactive)
GI50 (HL-60): > 100 µM (inactive)
GI50 (TK-10): > 100 µM (inactive)
GI50 (KM12): > 100 µM (inactive)
GI50 (OVCAR-3): > 100 µM (inactive)
GI50 (Malme-3M): > 100 µM (inactive)
GI50 (OVCAR-4): > 100 µM (inactive)
GI50 (HOP-62): > 100 µM (inactive)
GI50 (Hs-578T): > 100 µM (inactive)
GI50 (OVCAR-8): > 100 µM (inactive)
GI50 (ACHN): > 100 µM (inactive)
